One compound from ChEMBL document CHEMBL2331245, “Aza-BODIPY: improved synthesis and interaction with soluble Aβ1-42 oligomers” (Bioorg Med Chem Lett, 2013) can be followed below.

The source made the active and inactive calls. No cut-off for these calls is given here.

Series [1] concerns the target Amyloid-beta precursor protein (Homo sapiens) (UniProt P05067). As to the kind of experiment: Binding affinity to unordered beta sheet of amyloid beta (1 to 42) (unknown origin) by circular dichroism spectroscopic analysis.
The target of series [2] is T1, Albumin (Bos taurus, UniProt P02769). As to the kind of experiment: Binding affinity to beta-sheet rich bovine serum albumin at 2 uM by circular dichroism spectroscopic analysis. To be noted: cattle, TDE = time-dependent effect.
T1 sequence (P02769 whole entry): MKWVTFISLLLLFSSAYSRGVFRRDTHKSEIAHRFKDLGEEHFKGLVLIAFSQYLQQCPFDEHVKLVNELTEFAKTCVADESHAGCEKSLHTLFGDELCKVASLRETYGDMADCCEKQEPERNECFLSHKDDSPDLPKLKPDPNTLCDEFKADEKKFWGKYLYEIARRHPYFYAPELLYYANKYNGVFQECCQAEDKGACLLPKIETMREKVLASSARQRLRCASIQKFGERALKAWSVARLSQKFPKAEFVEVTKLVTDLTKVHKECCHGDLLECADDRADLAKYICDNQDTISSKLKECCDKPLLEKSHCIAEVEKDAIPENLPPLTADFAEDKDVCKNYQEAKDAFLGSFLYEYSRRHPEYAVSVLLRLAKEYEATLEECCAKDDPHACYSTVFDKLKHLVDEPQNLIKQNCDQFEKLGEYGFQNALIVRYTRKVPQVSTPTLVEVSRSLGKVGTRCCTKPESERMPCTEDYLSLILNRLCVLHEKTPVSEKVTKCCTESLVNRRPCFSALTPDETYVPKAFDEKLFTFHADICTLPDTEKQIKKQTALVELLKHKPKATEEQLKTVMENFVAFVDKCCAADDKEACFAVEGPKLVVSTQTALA
Series [3] deals with T1, Albumin. As to the kind of experiment: Binding affinity to bovine serum albumin at 2 uM by circular dichroism spectroscopic analysis relative to control relative to control. To be noted: cattle.
Series [4] concerns the target Amyloid-beta precursor protein (Homo sapiens) (UniProt P05067). As to the kind of experiment: Binding affinity to ordered beta sheet of amyloid beta (1 to 42) (unknown origin) by circular dichroism spectroscopic analysis.
The target is the same in series [5]. As to the kind of experiment: Binding affinity to unordered beta sheet of amyloid beta (1 to 42) (unknown origin) assessed as fluorescence enhancement at 0.5 uM by fluorescence spectra analysis relative to control.
Series [6] concerns the target T1, Albumin. As to the kind of experiment: Binding affinity to bovine serum albumin at 2 uM by circular dichroism spectroscopic analysis relative to control. To be noted: cattle.
Series [7] has as its target T1, Albumin. As to the kind of experiment: Binding affinity to bovine serum albumin at 2 uM by circular dichroism spectroscopic analysis. To be noted: cattle, TDE = time-dependent effect.
The target in series [8] is Amyloid-beta precursor protein (Homo sapiens) (UniProt P05067). As to the kind of experiment: Binding affinity to ordered beta sheet of amyloid beta (1 to 42) (unknown origin) assessed as fluorescence enhancement at 0.5 uM by fluorescence spectra analysis relative to control.
Sequence of Amyloid-beta precursor protein (Homo sapiens) (P05067 whole entry): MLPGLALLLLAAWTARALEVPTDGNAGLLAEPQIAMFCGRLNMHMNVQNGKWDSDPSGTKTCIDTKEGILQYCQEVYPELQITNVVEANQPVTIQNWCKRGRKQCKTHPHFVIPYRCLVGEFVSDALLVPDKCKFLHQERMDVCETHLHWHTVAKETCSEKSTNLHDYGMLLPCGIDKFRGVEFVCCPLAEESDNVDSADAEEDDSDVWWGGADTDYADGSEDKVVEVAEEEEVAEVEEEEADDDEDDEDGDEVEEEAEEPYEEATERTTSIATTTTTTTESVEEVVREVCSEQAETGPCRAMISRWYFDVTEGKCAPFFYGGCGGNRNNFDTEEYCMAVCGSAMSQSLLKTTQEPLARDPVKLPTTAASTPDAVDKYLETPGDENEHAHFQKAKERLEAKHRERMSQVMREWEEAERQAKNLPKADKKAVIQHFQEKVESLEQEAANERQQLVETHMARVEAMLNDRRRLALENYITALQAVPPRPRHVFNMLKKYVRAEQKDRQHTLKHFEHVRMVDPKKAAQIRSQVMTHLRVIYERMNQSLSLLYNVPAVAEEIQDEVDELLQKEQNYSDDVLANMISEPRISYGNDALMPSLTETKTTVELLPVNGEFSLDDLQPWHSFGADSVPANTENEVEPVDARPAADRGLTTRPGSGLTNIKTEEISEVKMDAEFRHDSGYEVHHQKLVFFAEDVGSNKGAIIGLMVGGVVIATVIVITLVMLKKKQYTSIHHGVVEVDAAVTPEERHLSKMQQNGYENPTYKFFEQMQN

For `F[B-]1(F)n2c(-c3ccccc3)cc(-c3ccccc3)c2N=C2C(c3ccccc3)=CC(c3ccccc3)=[N+]21`, the result in series [1] and in series [4] was Active. Also, the Activity result at Albumin [2] and on Albumin [7] was “tde” in each case. The “fold change (FC)” value at Albumin [3] was 340; in series [5], 6; at Albumin [6] it was 57; in series [8], 16.
